Experimental data: the NIST ThermoML archive (doi:10.1021/je1009976)

Assay: xn = mol fraction of the nth substance listed
Settings: 101 kPa, Liquid; for viscosity: Capillary tube (Ostwald / Ubbelohde) method; for mass density: Pycnometric method

OCCOCCO [diethylene glycol] + O
Settings	mass density, 303.15 K [kg/m3]	mass density, 308.15 K [kg/m3]	mass density, 313.15 K [kg/m3]	mass density, 318.15 K [kg/m3]	mass density, 323.15 K [kg/m3]	viscosity, 303.15 K [mPa·s]	viscosity, 308.15 K [mPa·s]	viscosity, 313.15 K [mPa·s]	viscosity, 318.15 K [mPa·s]	viscosity, 323.15 K [mPa·s]
x1 = 0.05006	1028.38	1026.09	1023.67	1021.08	1018.36	1.556	1.37	1.222	1.091	0.985
x1 = 0.1016	1051.83	1048.94	1046.02	1043.03	1039.94	2.582	2.242	1.962	1.729	1.535
x1 = 0.1512	1067.99	1065.34	1062.04	1058.72	1055.2	3.83	3.286	2.833	2.459	2.161
x1 = 0.2012	1078.71	1075.25	1071.77	1068.24	1064.5	5.261	4.448	3.806	3.286	2.846
x1 = 0.2477	1086.55	1082.95	1079.42	1075.76	1072.18	6.653	5.591	4.739	4.052	3.506
x1 = 0.298	1092.27	1088.52	1084.97	1081.58	1077.47	8.301	6.91	5.82	4.962	4.252
x1 = 0.3505	1096.22	1092.42	1088.68	1084.97	1081.16	9.851	8.154	6.821	5.768	4.929
x1 = 0.4483	1101.17	1097.58	1093.68	1089.91	1086.1	12.54	10.29	8.514	7.148	6.071
x1 = 0.5421	1103.74	1100.11	1096.37	1092.91	1088.98	15.06	12.28	10.14	8.478	7.143
x1 = 0.6518	1106.25	1102.58	1098.97	1095.29	1091.34	17.46	14.11	11.63	9.672	8.114
x1 = 0.7525	1107.78	1103.95	1100.25	1096.58	1093.18	19.3	15.64	12.82	10.65	8.937
x1 = 0.7864	1107.94	1104.26	1100.56	1096.89	1093.37	19.9	16.12	13.23	10.96	9.19
x1 = 0.8499	1108.55	1104.93	1101.32	1097.62	1093.91	20.61	16.74	13.73	11.42	9.461
x1 = 0.9005	1108.84	1105.16	1101.55	1097.87	1094.19	21.31	17.23	14.08	11.69	9.799
x1 = 0.9503	1109.66	1105.58	1101.98	1098.33	1094.55	21.74	17.53	14.41	11.92	9.999
x1 = 1	1109.48	1105.72	1102.11	1098.35	1094.94	22.16	17.93	14.71	12.19	10.19
